Experimental data published in USRE39591E1, “6-O-substituted ketolides having antibacterial activity” (Abbott Laboratories, priority 1996, dated 2007).
Values after ≈ are worked out from the molar mass of the structure shown.

Tested on: up to 32 different microorganisms
Assay: in vitro antibacterial activity (MIC), agar dilution on Brain Heart Infusion (BHI) agar with Steers replicator
Assay type: cell-based
Conditions: unit assumed
Protocol: Representative compounds of the present invention were assayed in vitro for antibacterial activity as follows: Twelve petri dishes containing successive aqueous dilutions of the test compound mixed with 10 mL of sterilized Brain Heart Infusion (BHI) agar (Difco 0148-01-5) were prepared. Each plate was inoculated with 1:100 (or 1:10 for slow-growing strains, such as Micrococcus and Streptococcus) dilutions of up to 32 different microorganisms, using a Steers replicator block. The inoculated plates were incubated at 35°-37° C. for 20 to 24 hours. In addition, a control plate, using BHI agar containing no test compound, was prepared and incubated at the beginning and end of each test.
An additional plate containing a compound having known susceptibility patterns for the organisms being tested and belonging to the same antibiotic class as the test compound was also prepared and incubated as a further control, as well as to provide test-to-test comparability. Erythromycin A was used for this purpose.
After incubation, each plate was visually inspected. The minimum inhibitory concentration (MIC) was defined as the lowest concentration of drug yielding no growth, a slight haze, or sparsely isolated colonies on the inoculum spot as compared to the growth control.

With CCC1OC(=O)C(C)C(=O)C(C)C(OC2OC(C)CC(N(C)C)C2O)C(C)(OCC=Cc2ccc(F)c3ccccc23)CC(C)C(=O)C(C)C2NC(=O)OC12C (stereo not shown) [Example 279, Compound of Formula (IX): L is CO, T is NH2, R is —CH2CH═CH-(4-fluoronaphthyl)] as the compound, how does the MIC (organism code AA) read?
The MIC was 0.39 µg/mL.

And the MIC (organism code BB)?
The MIC was 0.39 µg/mL.

What about the MIC (organism code CC) of the same compound?
The MIC was 50 µg/mL.

And the MIC (organism code DD)?
The MIC was 0.78 µg/mL.

And the MIC (organism code EE)?
Its MIC is 0.39 µg/mL.

What about the MIC (organism code FF) of the same compound?
Its MIC is 0.39 µg/mL.

And the MIC (organism code GG)?
Its MIC is 50 µg/mL.

What about the MIC (organism code HH) of the same compound?
Its MIC is 0.39 µg/mL.

What about the MIC (organism code II) of the same compound?
Its MIC is 0.2 µg/mL.

What about the MIC (organism code JJ) of the same compound?
The MIC was 0.05 µg/mL.

And the MIC (organism code KK)?
The MIC was 0.02 µg/mL.

What about the MIC (organism code MM) of the same compound?
Its MIC is 25 µg/mL.

What about the MIC (organism code NN) of the same compound?
The MIC was 0.39 µg/mL.

And the MIC (organism code OO)?
Its MIC is 0.05 µg/mL.

What about the MIC (organism code PP) of the same compound?
Its MIC is 0.39 µg/mL.

What about the MIC (organism code QQ) of the same compound?
Its MIC is greater than 100 µg/mL.

What about the MIC (organism code RR) of the same compound?
The MIC was 1.56 µg/mL.

What about the MIC (organism code SS) of the same compound?
Its MIC is greater than 100 µg/mL.

And the MIC (organism code TT)?
The MIC was greater than 100 µg/mL.

What about the MIC (organism code UU) of the same compound?
The MIC was 0.78 µg/mL.

What about the MIC (organism code VV) of the same compound?
The MIC was 0.78 µg/mL.

What about the MIC (organism code WW) of the same compound?
Its MIC is 8 µg/mL.

What about the MIC (organism code XX) of the same compound?
The MIC was 0.03 µg/mL.

What about the MIC (organism code YY) of the same compound?
The MIC was 0.03 µg/mL.

And the MIC (organism code ZZ)?
Its MIC is 32 µg/mL.

And the MIC (organism code ZZA)?
The MIC was 0.5 µg/mL.

With CCC1OC(=O)C(C)C(=O)C(C)C(OC2OC(C)CC(N(C)C)C2O)C(C)(OCC=Cc2cnc3ccc(OC)cc3c2)CC(C)C(=O)C(C)C2NC(=O)OC12C (stereo not shown) [Example 209, R is —CH2CH═CH-(6-methoxy-3-quinolyl)] as the compound, how does the MIC (organism code AA) read?
Its MIC is 0.05 µg/mL (≈ 0.0628 µM).

And the MIC (organism code CC)?
The MIC was greater than 100 µg/mL.

What about the MIC (organism code DD) of the same compound?
The MIC was 0.1 µg/mL (≈ 0.126 µM).

And the MIC (organism code EE)?
Its MIC is 0.1 µg/mL (≈ 0.126 µM).

What about the MIC (organism code FF) of the same compound?
The MIC was 0.1 µg/mL (≈ 0.126 µM).

And the MIC (organism code GG)?
The MIC was greater than 100 µg/mL.

What about the MIC (organism code HH) of the same compound?
Its MIC is 0.1 µg/mL (≈ 0.126 µM).

And the MIC (organism code II)?
The MIC was 0.02 µg/mL (≈ 0.0251 µM).

What about the MIC (organism code JJ) of the same compound?
Its MIC is 0.01 µg/mL (≈ 0.0126 µM).

And the MIC (organism code KK)?
Its MIC is 0.01 µg/mL (≈ 0.0126 µM).

And the MIC (organism code LL)?
Its MIC is 0.01 µg/mL (≈ 0.0126 µM).

And the MIC (organism code MM)?
The MIC was 3.1 µg/mL (≈ 3.89 µM).

And the MIC (organism code NN)?
Its MIC is 0.1 µg/mL (≈ 0.126 µM).

And the MIC (organism code OO)?
The MIC was 0.01 µg/mL (≈ 0.0126 µM).

What about the MIC (organism code PP) of the same compound?
Its MIC is 0.2 µg/mL (≈ 0.251 µM).

What about the MIC (organism code QQ) of the same compound?
Its MIC is 100 µg/mL (≈ 126 µM).

And the MIC (organism code RR)?
Its MIC is 0.2 µg/mL (≈ 0.251 µM).

What about the MIC (organism code SS) of the same compound?
The MIC was greater than 100 µg/mL.

And the MIC (organism code TT)?
Its MIC is greater than 100 µg/mL.

And the MIC (organism code UU)?
Its MIC is 0.78 µg/mL (≈ 0.98 µM).

What about the MIC (organism code VV) of the same compound?
Its MIC is 0.02 µg/mL (≈ 0.0251 µM).

And the MIC (organism code WW)?
Its MIC is 2 µg/mL (≈ 2.51 µM).

And the MIC (organism code XX)?
Its MIC is 0.03 µg/mL (≈ 0.0377 µM).

And the MIC (organism code YY)?
Its MIC is 0.03 µg/mL (≈ 0.0377 µM).

What about the MIC (organism code ZZ) of the same compound?
The MIC was 4 µg/mL (≈ 5.03 µM).

And the MIC (organism code ZZA)?
The MIC was 0.5 µg/mL (≈ 0.628 µM).

Which MIC (Candida albicans CCH 442 (code TT)) does the source give for CC[C@H]1OC(=O)[C@H](C)C(=O)[C@H](C)[C@@H](O[C@@H]2O[C@H](C)C[C@H](N(C)C)[C@H]2O)[C@@](C)(OCCCc2ccccc2)C[C@@H](C)C(=O)[C@H](C)[C@@H](O)[C@]1(C)O [Example 15, Compound of Formula (VIII): X is O, R is —CH2CH2CH2-Phenyl] here?
Its MIC is greater than 100 µg/mL.

What about the MIC (Enterococcus faecism ATCC 8043 (code II)) of the same compound?
Its MIC is 1.56 µg/mL.

What about the MIC (Escherichia coli DC-2 (code SS)) of the same compound?
The MIC was greater than 100 µg/mL.

What about the MIC (Escherichia coli JUHL (code QQ)) of the same compound?
The MIC was greater than 100 µg/mL.

What about the MIC (Escherichia coli SS (code RR)) of the same compound?
Its MIC is 6.2 µg/mL.

And the MIC (Haemophilis influenzae DILL AMP R (code WW))?
The MIC was greater than 64 µg/mL.

What about the MIC (Micrococcus luteus ATCC 4698 (code PP)) of the same compound?
The MIC was 3.1 µg/mL.

What about the MIC (Micrococcus luteus ATCC 9341 (code OO)) of the same compound?
The MIC was 0.78 µg/mL.

And the MIC (Mycobacterium smegmatis ATCC 114 (code UU))?
The MIC was 6.2 µg/mL.

What about the MIC (Nocardia Asteroides ATCC9970 (code VV)) of the same compound?
Its MIC is 1.56 µg/mL.

And the MIC (Staphylococcus aureus 1775 (code GG))?
Its MIC is greater than 100 µg/mL.

What about the MIC (Staphylococcus aureus A5177 (code BB)) of the same compound?
The MIC was 6.2 µg/mL.

What about the MIC (Staphylococcus aureus A-5278 (code CC)) of the same compound?
Its MIC is greater than 100 µg/mL.

And the MIC (Staphylococcus aureus ATCC 6538P (code AA))?
Its MIC is 6.2 µg/mL.

And the MIC (Staphylococcus aureus CMX 553 (code FF))?
Its MIC is 6.2 µg/mL.

What about the MIC (Staphylococcus aureus CMX 642A (code DD)) of the same compound?
Its MIC is 6.2 µg/mL.

What about the MIC (Staphylococcus aureus NCTC10649M (code EE)) of the same compound?
The MIC was 6.2 µg/mL.

What about the MIC (Staphylococcus epidermidis 3519 (code HH)) of the same compound?
Its MIC is 6.2 µg/mL.

And the MIC (Streptococcus Pneumonia 5649 (code ZZA))?
Its MIC is 1 µg/mL.

And the MIC (Streptococcus Pneumonia 5979 (code ZZ))?
The MIC was 32 µg/mL.

And the MIC (Streptococcus Pneumonia ATCC6303 (code XX))?
Its MIC is 1 µg/mL.

What about the MIC (Streptococcus Pneumonia GYR 1171 (code YY)) of the same compound?
The MIC was 1 µg/mL.

And the MIC (Streptococcus agalactiae CMX 508 (code KK))?
Its MIC is 0.2 µg/mL.

And the MIC (Streptococcus bovis A-5169 (code JJ))?
The MIC was 0.2 µg/mL.

And the MIC (Streptococcus pyogenes 930 (code MM))?
The MIC was 100 µg/mL.

And the MIC (Streptococcus pyogenes EES61 (code LL))?
Its MIC is 0.39 µg/mL.

And the MIC (Streptococcus pyogenes PIU 2548 (code NN))?
Its MIC is 3.1 µg/mL.
